Laboratory results: US6271220A, “Anti-angiogenic agents” (Allergan Sales, Inc., priority 1999, dated 2001)

What follows are molecules tested on Purified bovine brain tubulin (assay: in vitro tubulin polymerization assay (turbidimetric)). Conditions: GTP-initiated, 30 C, turbidity monitored for 15 minutes, read-out: 1C50, inhibitory effects on tubulin polymerization in vitro.
Type: biochemical
Method: Anti-mitotic activity can be evaluated by testing the ability of a compound of the invention to inhibit tubulin polymerization and microtubule assembly in vitro. The tubulin/microtubule system is instrumental in the formation in the mitotic spindle, making it a prime target for anti-mitotic agents. In vitro tubulin polymerization assays are performed to serve as an estimate of the in vivo cytotoxic activity of designated compounds. Purified bovine brain tubulin (120 μl, 4 mg/ml), 240 μl PME (100 mm piperazine-n, n-bis(2-ethane-sulfonic acid i.e., pipes, ph 6.9, 1 mm MgSO4, 2 mm ethyleneglycol-bis-(β-aminoethyl ether) N, N, N', N'-tetraacetic acid i.e. EGTA and 40 μl dimethyl sulfoxide i.e. DMSO, are combined and transferred to a 1 ml quartz cuvet. Polymerization is initiated by the addition of guanosine triphosphate i.e. GTP, (8 μl, 50 mM) and monitored turbidometrically in a Varian DMS 90 UV-Vis spectrophotometer in a temperature controlled cuvet holder at 30_C. Tubidity increases with increasing tubulin polymerization, giving a false absorbence reading and, over time, a polymerization curve. […] 200 μM solutions (in DMSO) of compounds to be assayed were prepared, and substituted for portions of the DMSO in the polymerization mixture.
The method is given above in-vitro assay for anti-miotic activity.

Molecule	IC50 [µM]
4 Chloro-A-Homo-4,5(10)-estradien-2,17β-diol-3-one [Compound 11b]	9.8
C[C@]12CC[C@@H]3c4cccc(=O)cc4CC[C@H]3[C@@H]1CC[C@@H]2O [Compound 3, A-Homo-1(10), 2,4a-estratrien-17β-ol-4-one]	7.2
C[C@]12CC[C@@H]3c4ccc(=O)ccc4CC[C@H]3[C@@H]1CC[C@@H]2O [Compound 6, A-Homo-1,4,5(10)-estratrien-17β-ol-3-one]	4.4
C[C@]12CC[C@@H]3c4ccc(Br)c(=O)cc4CC[C@H]3[C@@H]1CC[C@@H]2O [Compound 8a, 3-Bromo-A-Homo-1(10), 2,4a-estratrien-17β-ol-4-one]	2.9
C[C@]12CC[C@@H]3c4ccc(Cl)c(=O)cc4CC[C@H]3[C@@H]1CC[C@@H]2O [Compound 8b, 3-Chloro -A-Homo-1(10), 2,4a-estratrien-17β ol-4-one]	2.8
COc1ccc2c(cc1=O)CC[C@@H]1[C@@H]2CC[C@]2(C)[C@@H](O)CC[C@@H]12 [Compound 8c, 3-Methoxy-A-Homo-1(10), 2,4a-estratrien-17β-ol-4-one]	8.1
COc1cc2c(ccc1=O)[C@H]1CC[C@]3(C)[C@@H](O)CC[C@H]3[C@@H]1CC2 [Compound 11c, 4-Methoxy-A-Homo-1,4,5(10)-estratrien-17β-ol-3-one]	2.1
CCOc1cc2c(ccc1=O)[C@H]1CC[C@]3(C)[C@@H](O)CC[C@H]3[C@@H]1CC2 [Compound 11d, 3-Ethoxy-A-Homo-1,4,5(10)-estratrien-17β-ol-3-one]	5.9
COc1ccc2c(cc1=O)[C@H]1CC[C@]3(C)[C@@H](O)CC[C@H]3[C@@H]1CC2 [Compound 12, 3-Methoxy-A-Homo-1(10), 3,4a-estratrien-17β-ol-2-one]	27.5
COc1cc2c(ccc1=O)CC[C@@H]1[C@@H]2CC[C@]2(C)[C@@H](O)CC[C@@H]12 [Compound 13, 2-Methoxy-A-Homo-1,4,5(10)-estratrien-17β-ol-3-one]	29.8
C[C@]12CC[C@@H]3c4ccc(N)c(=O)cc4CC[C@H]3[C@@H]1CC[C@@H]2O [Compound 14, 3-Amino-A-homo-1(10), 2,4a-estratrien-17β-ol-4-one]	14.4
C[C@]12CC[C@@H]3c4cc(N)c(=O)ccc4CC[C@H]3[C@@H]1CC[C@@H]2O [Compound 15a, 2-Amino-A-homo-1,4,5(10)-estratrien-17β-ol-3-one]	16.5
C[C@]12CC[C@@H]3c4ccc(=O)c(N)cc4CC[C@H]3[C@@H]1CC[C@@H]2O [Compound 15b, 4-Amino-A-homo-1,4,5(10)-estratrien-17β-ol-3-one]	9.2
C[C@]12CC[C@@H]3c4cc(O)c(=O)ccc4CC[C@H]3[C@@H]1CC[C@@H]2O [Compound 16a, A-homo-1,4,5(10)-estratrien-2, 17β-diol-3-one]	14.9
C[C@]12CC[C@@H]3c4ccc(O)c(=O)cc4CC[C@H]3[C@@H]1CC[C@@H]2O [Compound 16b, A-homo-1(10), 2,4a-estratrien-3,17β-diol-3-one]	22.8
C[C@]12CC[C@@H]3c4ccc([N+](=O)[O-])c(=O)cc4CC[C@H]3[C@@H]1CC[C@@H]2O [Compound 17a, 3-Nitro-A-homo-1(10), 2,4a-estratrien-17β-ol-4-one]	52
C=Cc1ccc2c(cc1=O)CC[C@@H]1[C@@H]2CC[C@]2(C)[C@@H](O)CC[C@@H]12 [Compound 18, 3-Vinyl-A-homo-1(10), 2,4a-estratrien-17β-ol-4-one]	14.2
CNc1ccc2c(cc1=O)CC[C@@H]1[C@@H]2CC[C@]2(C)[C@@H](O)CC[C@@H]12 [Compound 19a, 3-Methylamino-A-homo-1(10), 2,4a-estratrien-17β-ol-4-one]	60.7
CN(C)c1ccc2c(cc1=O)CC[C@@H]1[C@@H]2CC[C@]2(C)[C@@H](O)CC[C@@H]12 [Compound 19b, 3-Dimethylamino-A-homo-1(10), 2,4a-estratrien-17β-ol-4-one]	14.3
CNc1cc2c(ccc1=O)[C@H]1CC[C@]3(C)[C@@H](O)CC[C@H]3[C@@H]1CC2 [Compound 19c, 4-Methylamino-A-homo-1,4,5(10)-estratrien-17β-ol-3-one]	19.4
CN(C)c1cc2c(ccc1=O)[C@H]1CC[C@]3(C)[C@@H](O)CC[C@H]3[C@@H]1CC2 [Compound 19d, 4-Dimethylamino-A-homo-1,4,5(10)-estratrien-17β-ol-3-one]	46.8
